# From US20140187426A1, “CROP ENHANCEMENT” (SYNGENTA PARTICIPATIONS AG, priority 2011, published 2014)
# How the values were obtained:
# Assay type in all cases: in vivo
# winter rye (Reknit) = test: Glasshouse trial, lodging of winter rye after leaf spray; conditions: for % lodging 30 DAA Winter rye: leaf spray at growth stage 30, 30 days after application
# Description: (§1) A glasshouse trial was setup to assess growth effects of cis-jasmone on summer barley (Pasadena) and winter rye (Reknit).
# (§2) Each treatment was applied as a spray to the leaves of the plant at plant growth stage 30 (start of stem elongation). Assessments of lodging were made 30 days after application; the results are expressed as percentage lodging in Table 2.
# Poa annua [1] = test: Turf colour assessment, golf course fairway trial
# Description: (§3) A trial was setup to assess crop (turf) enhancement effects of cis-jasmone on Poa annua in a golf course […]. Each treatment was applied as a spray to the turfgrass. Assessments of turf colour and quality were made at several intervals after application; the results are expressed on a scale of 1 (poor) to 10 (good).
# [2] = system: summer oil seed rape variety Senator; test: Glasshouse trial, leaf chlorophyll content (Dualex), variety Senator
# Description: (§4) A glasshouse trial was setup to assess growth effects of cis-jasmone on summer oil seed rape varieties Jumbo and Senator. Each treatment was applied as a spray to the leaves of the plant at plant growth stage 13 (3 leaves). Three replicates of 2 plants were sowed in pots in the greenhouse. Assessments of chlorophyll content of the leaves were made using the Dualex technique 25 days after application; the results are expressed as Dualex units of Chlorophyll in Table 8.
# summer barley (Pasadena) = test: Glasshouse trial, lodging of summer barley after leaf spray; conditions: for % lodging 30 DAA Summary barley: leaf spray at growth stage 30, 30 days after application
# Description: as §1, §2
# Poa annua [3] = test: Turf quality assessment, golf course fairway trial
# Description: as §3
# creeping bentgrass = test: Turf colour assessment, golf course green trial; conditions: for Plant Colour 14DAA (2) / Plant Colour 14 DAA (3) / Plant Colour 7AA (2): scale 1 (poor) to 10 (good), 3 apps - 4 week interval; for Plant Colour 14DAA (2): 14 days after application 2; for Plant Colour 14 DAA (3): 14 days after application 3; for Plant Colour 7AA (2): after application 2
# Description: A trial was setup to assess crop (turf) enhancement effects of cis-jasmone on a creeping bentgrass golf course green. Each treatment was applied as a spray to the turfgrass. Assessments of turf colour and quality were made at several intervals after application; the results are expressed on a scale of 1 (poor) to 10 (good) in Table 5.
# hybrid bermudagrass = test: Turf growth (clipping weights), golf course fairway trial; conditions: for Clipping wt (g) 32 DAA (1): 3 apps - 4 week interval, 32 days after application 1
# Description: A trial was setup to assess crop enhancement effects of cis-jasmone on a hybrid bermudagrass golf course […]. Each treatment was applied as a spray to the turfgrass. Assessments of turf growth (clipping weights in grams) were made at several intervals after application.
# [4] = system: summer oil seed rape variety Jumbo; test: Glasshouse trial, leaf chlorophyll content (Dualex), variety Jumbo
# Description: as §4
# [5] = during the entire study, versus untreated check
# [6] = scale 1 (poor) to 10 (good), 50 g ai/ha, 4 applications on a 4 week schedule, 9-Jul
# [7] = scale 1 (poor) to 10 (good), 50 g ai/ha, 4 applications on a 4 week schedule, 16-Jul
# [8] = scale 1 (poor) to 10 (good), 50 g ai/ha, 4 applications on a 4 week schedule, 17-Jun
structure (smiles),measurement,setting,value
"CC/C=C\CC1=C(C)CCC1=O [Cis-jasmone (CJN), cis-jasmone]",% lodging 30 DAA Winter rye,winter rye (Reknit); 150 g AI/ha,30.0%
same,% lodging 30 DAA Winter rye,winter rye (Reknit); 300 g AI/ha,23.3%
same,effect on lodging (in words),"winter rye (Reknit); winter rye, versus untreated check",significantly increases lodging
same,effect on turf colour (in words),Poa annua [1]; [5],significantly increased turf colour
same,Turf colour 4-June,"Poa annua [1]; scale 1 (poor) to 10 (good), 50 g ai/ha, 4 applications on a 4 week schedule, 4-June",7.80 b
same,Turf colour 9-Jul,Poa annua [1]; [6],8.2 a
same,Turf colour 10-June,"Poa annua [1]; scale 1 (poor) to 10 (good), 50 g ai/ha, 4 applications on a 4 week schedule, 10-June",8.16 a
same,Turf colour 14-May,"Poa annua [1]; scale 1 (poor) to 10 (good), 50 g ai/ha, 4 applications on a 4 week schedule, 14-May",5.8 b
same,Turf colour 16-Jul,Poa annua [1]; [7],7.96 a
same,Turf colour 17-Jun,Poa annua [1]; [8],7.80 a
same,Turf colour 21-May,"Poa annua [1]; scale 1 (poor) to 10 (good), 50 g ai/ha, 4 applications on a 4 week schedule, 21-May",8.08 b
same,Turf colour 28-May,"Poa annua [1]; scale 1 (poor) to 10 (good), 50 g ai/ha, 4 applications on a 4 week schedule, 28-May",6.00 b
same,effect on chlorophyll content (in words),[2],not
same,% lodging 30 DAA Summary barley,summer barley (Pasadena); 150 g AI/ha,70.0%
same,% lodging 30 DAA Summary barley,summer barley (Pasadena); 300 g AI/ha,60.0%
same,initial growth (in words),summer barley (Pasadena); summer barley,faster initial growth
same,effect on lodging (in words),"summer barley (Pasadena); summer barley, versus untreated check",significantly increases lodging
same,effect on turf quality (in words),Poa annua [3]; [5],significantly increased turf quality
same,Turf quality 3-Jul,"Poa annua [3]; scale 1 (poor) to 10 (good), 50 g ai/ha, 4 applications on a 4 week schedule, 3-Jul",8.46 a
same,Turf quality 9-Jul,Poa annua [3]; [6],8.42 a
same,Turf quality 10-Jun,"Poa annua [3]; scale 1 (poor) to 10 (good), 50 g ai/ha, 4 applications on a 4 week schedule, 10-Jun",8.2 a
same,Turf quality 16-Jul,Poa annua [3]; [7],8.1 a
same,Turf quality 17-Jun,Poa annua [3]; [8],8.8 a
same,Turf quality 23-Jul,"Poa annua [3]; scale 1 (poor) to 10 (good), 50 g ai/ha, 4 applications on a 4 week schedule, 23-Jul",8.18 a
same,Turf quality 24-Jun,"Poa annua [3]; scale 1 (poor) to 10 (good), 50 g ai/ha, 4 applications on a 4 week schedule, 24-Jun",8.74 a
same,Turf quality 31-Jul,"Poa annua [3]; scale 1 (poor) to 10 (good), 50 g ai/ha, 4 applications on a 4 week schedule, 31-Jul",7.96 a
same,effect on turf colour (in words),creeping bentgrass; [5],significantly increased turf colour
same,Plant Colour 14DAA (2),creeping bentgrass; 50 g ai/ha,5.40 e
same,Plant Colour 14 DAA (3),creeping bentgrass; 50 g ai/ha,6.00 c
same,Plant Colour 7AA (2),creeping bentgrass; 50 g ai/ha,5.6
same,Plant Colour 14DAA (2),creeping bentgrass; 100 g ai/ha,6.00 c
same,Plant Colour 14 DAA (3),creeping bentgrass; 100 g ai/ha,6.00 c
same,Plant Colour 7AA (2),creeping bentgrass; 100 g ai/ha,5.7
same,Plant Colour 14DAA (2),creeping bentgrass; 150 g ai/ha,6.00 c
same,Plant Colour 14 DAA (3),creeping bentgrass; 150 g ai/ha,6.00 c
same,Plant Colour 7AA (2),creeping bentgrass; 150 g ai/ha,6.08
same,Clipping wt (g) 32 DAA (1),hybrid bermudagrass; 50 g ai/ha,37 ab g
same,Clipping wt (g) 32 DAA (1),hybrid bermudagrass; 100 g ai/ha,45 a g
same,Clipping wt (g) 32 DAA (1),hybrid bermudagrass; 150 g ai/ha,25 c g
same,effect on clipping weights (in words),"hybrid bermudagrass; early in the trial, versus untreated check",significantly increased clipping weights
same,effect on chlorophyll content (in words),[4],increased chlorophyll content
